For series [1] the following is noted: cited from earlier work.
Series [2] can be described thus: Human biomonitoring: urinary excretion of PAH metabolites (GC–MS/MS, creatinine-normalised) in firefighting instructors before and after live fire training. The conditions noted are these: for Increase in concentration from before exposure up to the maximum of excretion, factor / Median increase in morning urine after exposure (sampling 9) vs. before (sampling 1) / Concentration in urine, IQR / Concentration in urine, range / Concentration in urine, median: in vivo; for Median increase from baseline (sample 2) to peak excretion: peak: sample 5 for 1-PYR, sample 4 otherwise. On the procedure: All study participants (n = 6) were male firefighting instructors from Germany. […] Before the start of the study, all subjects declared that they were non-smokers. Tattoo bearers were excluded before the start of the study as tattoo ink can be a potential source of polycyclic aromatic hydrocarbons. The authors declare that this research was conducted in accordance with the relevant regulations, including the Declaration of Helsinki. All subjects gave written informed consent after being informed about the study by the investigator.
Exposure to combustion products took place in several training sessions that simulated live fire conditions by burning a defined number of uncoated chipboards in an overseas container. The container was located in a hall with exhaust air purification. […] In addition, all subjects wore long-sleeved undergarments under their turnout gear. Only laundered clothing and cleaned equipment (e.g. helmets, masks) were used. The donning and doffing of clothing and protective equipment took place only in a smoke-free, well-ventilated area. Immediately after taking off the firefighters' gloves after training, the participants put on nitrile gloves for further undressing. After removing the helmet, flash hood and SCBA face shield, the participants put on particle filtering half masks (FFP3) to remove contaminated turnout jackets and trousers. After a break for rehydration and cool down still wearing their undergarments, the participants went to shower. […] The interval between two consecutive training sessions for each subject was at least six days. […] In this way, each subject was biomonitored at each of the five training sessions. All additional (unscheduled) urinations between the predefined times were also collected in separate containers and pooled afterwards with the next scheduled sample. […] A total of 270 samples were to be collected using this procedure for all participants and five training sessions of each individual. Subjects completed a questionnaire for each sampling period to account for possible pre-exposure or concurrent exposure to PAHs from sources other than the fire simulation unit, such as occupational exposure to combustion products, exposure to tobacco smoke (active/passive) and barbecue activities, and consumption of smoked or charbroiled foods.
In brief, the analytes were extracted by liquid–liquid extraction with n-hexane after enzymatic hydrolysis of the urine samples with ß-glucuronidase/arylsulfatase (isolated from helix pomatia) and derivatised by silylation with N-trimethylsilyl-N-methyl trifluoroacetamide afterwards. […] All standards were obtained from LGC-Standards, Wesel, Germany.
DHN in urine was determined referring to a method described in detail by Klotz et al.[29]. […] External calibration with internal standardisation by an isotopically labelled analogue of the target compound was done by analysis of pool urine samples spiked with the glucuronides of DHN and D6-1,2-dihydroxynaphthalene (internal standard) before enzymatic hydrolysis. Both standards are not commercially available and were obtained as a gift from the Institute of Occupational, Social and Environmental Medicine at the University of Erlangen-Nuremberg (Germany). A detailed description of the synthesis of the compounds is given by[26]. […] Up to now, there is no external quality assessment scheme available for DHN.
Urinary creatinine was analysed in the Institute of Clinical Chemistry and Laboratory Medicine of University Medical Centre of the Johannes Gutenberg University Mainz using a photometrical assay based on the method of[30].

On the set-up of series [3]: method as in PMID 32464238. The conditions noted are these: by scheduled sampling time; cited from earlier work.
The conditions of series [4]: upper margin of internal exposure typically found in smokers; cited from earlier work.
Series [5] in a line: Time to peak and initial elimination half-life of the urinary biomarkers (first-order model, linear mixed effects). The series is classed as in vivo, human. From the text: The initial half-life of each biomarker was estimated using statistical methods described previously[6],[32]. In short, we estimated the first-order elimination rate constant λ based on the model in Eq. (1):1 C=C0+B·e^λ·t+∈
Here, C is the creatinine-adjusted concentration in urine after the uptake phase, C0 is the baseline concentration before training, B is the difference from peak to baseline concentration, t is the time since peak concentration, and ϵ is the error term. […] Using package nlme[33] for the statistical environment R[34],[35], the model was fitted as a linear mixed effects model for the log concentration difference to baseline ln(C–C0) as the outcome. The model was fitted simultaneously for all data and included fixed effects for biomarker, time since peak, and their interaction term. It used random slopes for time since peak and random intercepts for […]. Errors were assumed to be autocorrelated according to an AR(1) process.

The mark [6] stands for this setting: urinary excretion, time after onset of exposure.

As to `c1ccc2ccccc2c1` [NAP, naphthalene], the IARC carcinogenicity category entry in series [1] is recorded as “group 2B (possibly carcinogenic to humans)”.
Regarding `Oc1cccc2ccccc12` [1-NAP, 1-hydroxynaphthalene], in series [2], the “Increase in concentration from before exposure up to the maximum of excretion, factor” value came to 40; the “Median increase in morning urine after exposure (sampling 9) vs. before (sampling 1)” value is 3.9 fold; the “Median increase from baseline (sample 2) to peak excretion” value is 36 fold. Besides, in series [3], the “Time of peak excretion after the end of the training session” value was 1 h. Further, the “95th percentile of urinary concentration in smokers” value in series [4] is reported as 32.8 µg/g crea.
As for `Oc1ccc2ccccc2c1` [2-NAP, 2-hydroxynaphthalene], the “Proportion in the total excretion of the three naphthalene metabolites” value in series [2] (after exposure (after sampling 3, rest of the sampling period), based on median concentrations) is on record as “lower than 10%”. Moreover, the “Increase in concentration from before exposure up to the maximum of excretion, factor” value in series [2] (male, human) is recorded as “about 6”. The “Concentration in urine, IQR” value in series [2] (male, human, 0 h) is listed as 4.55–9.78 µg/g creatinine; in series [2] (male, human, 1 h), 11.05–18.20 µg/g creatinine; in series [2] (male, human, 3 h), 8.14–14.40 µg/g creatinine; in series [2] (male, human, 6 h), 3.62–7.98 µg/g creatinine; in series [2] (male, human, 9 h), 2.34–5.27 µg/g creatinine; in series [2] (male, human, 11 h), 1.76–4.19 µg/g creatinine. For the same compound, the “Concentration in urine, IQR” value is reported as 1.93–4.24 µg/g creatinine in series [2] (male, human, 18 h); 1.13–3.47 µg/g creatinine in series [2] (male, human, -0.4 h); 1.18–2.88 µg/g creatinine in series [2] (male, human, -4.2 h). Besides, the “Concentration in urine, range” value in series [2] (male, human, 0 h) is 2.07–42.68 µg/g creatinine; in series [2] (male, human, 1 h), 3.97–58.89 µg/g creatinine; in series [2] (male, human, 3 h), 5.62–23.16 µg/g creatinine; in series [2] (male, human, 6 h), 1.17–12.78 µg/g creatinine; in series [2] (male, human, 9 h), 1.30–11.32 µg/g creatinine; in series [2] (male, human, 11 h) it was 1.08–10.02 µg/g creatinine. In addition, the “Concentration in urine, range” value in series [2] (male, human, 18 h) was 1.02–14.56 µg/g creatinine; in series [2] (male, human, -0.4 h), 0.21–10.94 µg/g creatinine; in series [2] (male, human, -4.2 h), 0.30–10.02 µg/g creatinine. Besides, the “Concentration in urine, median” value amounted to 11.96 µg/g creatinine in series [2] (male, human, 1 h); 7.42 µg/g creatinine in series [2] (male, human, 2 h); 10.07 µg/g creatinine in series [2] (male, human, 3 h); 5.12 µg/g creatinine in series [2] (male, human, 6 h); 3.48 µg/g creatinine in series [2] (male, human, 9 h); 3.14 µg/g creatinine in series [2] (male, human, 11 h). Besides, the “Concentration in urine, median” value in series [2] (male, human, 18 h) is 3.26 µg/g creatinine; in series [2] (male, human, -0.4 h) it was 1.94 µg/g creatinine; in series [2] (male, human, -4.2 h) it was 2.00 µg/g creatinine. For the same compound, in series [2] (male, human, 18 h), the “Median increase in morning urine after exposure (sampling 9) vs. before (sampling 1)” value came out at 1.5 fold. Besides, in series [2], the “Median increase from baseline (sample 2) to peak excretion” value stood at 6.6 fold. Also, in series [5] (male, human, initial elimination half-life after peak excretion, urine, read-out: Estimated half-life, mean (converted)), the half-life was 5.2 h. Also, the “Time to peak, median” value in series [5] (setting [6]) was 3.3 h. Moreover, in series [5] (setting [6]), the “Time to peak, range” value was 2.2 to 11.2 h. Moreover, the “Time of peak excretion after the end of the training session” value in series [3] was 1 h. The “95th percentile of urinary concentration in smokers” value in series [4] is given as 29.0 µg/g crea.

These data come from article PMC11219744, “Renal excretion of 1,2-dihydroxynaphthalene (DHN) in firefighting instructors after exposure to polycyclic aromatic hydrocarbons (PAHs) during live fire training” (Scientific Reports, 2024).
